Results taken from publication PMC5063960, “N-acetylglucosamine sensing by a GCN5-related N-acetyltransferase induces transcription via chromatin histone acetylation in fungi” (Nature Communications, 2016).

Biological target: T1, Ngs1 (Candida albicans, UniProt A0A1D8PRM0)
T1 construct: full length (963 aa), N-terminal 3xFLAG tag, expressed from NGS1 promoter in C. albicans ngs1 mutant; protein extract
Assay: GlcNAc-agarose pull-down from protein extract, competition with free GlcNAc, anti-FLAG Western blot
Format: binding
Conditions: 100 mM free GlcNAc as competitor; 4 °C overnight; GH3 homology domain site

T1 sequence (A0A1D8PRM0 entry or part of it): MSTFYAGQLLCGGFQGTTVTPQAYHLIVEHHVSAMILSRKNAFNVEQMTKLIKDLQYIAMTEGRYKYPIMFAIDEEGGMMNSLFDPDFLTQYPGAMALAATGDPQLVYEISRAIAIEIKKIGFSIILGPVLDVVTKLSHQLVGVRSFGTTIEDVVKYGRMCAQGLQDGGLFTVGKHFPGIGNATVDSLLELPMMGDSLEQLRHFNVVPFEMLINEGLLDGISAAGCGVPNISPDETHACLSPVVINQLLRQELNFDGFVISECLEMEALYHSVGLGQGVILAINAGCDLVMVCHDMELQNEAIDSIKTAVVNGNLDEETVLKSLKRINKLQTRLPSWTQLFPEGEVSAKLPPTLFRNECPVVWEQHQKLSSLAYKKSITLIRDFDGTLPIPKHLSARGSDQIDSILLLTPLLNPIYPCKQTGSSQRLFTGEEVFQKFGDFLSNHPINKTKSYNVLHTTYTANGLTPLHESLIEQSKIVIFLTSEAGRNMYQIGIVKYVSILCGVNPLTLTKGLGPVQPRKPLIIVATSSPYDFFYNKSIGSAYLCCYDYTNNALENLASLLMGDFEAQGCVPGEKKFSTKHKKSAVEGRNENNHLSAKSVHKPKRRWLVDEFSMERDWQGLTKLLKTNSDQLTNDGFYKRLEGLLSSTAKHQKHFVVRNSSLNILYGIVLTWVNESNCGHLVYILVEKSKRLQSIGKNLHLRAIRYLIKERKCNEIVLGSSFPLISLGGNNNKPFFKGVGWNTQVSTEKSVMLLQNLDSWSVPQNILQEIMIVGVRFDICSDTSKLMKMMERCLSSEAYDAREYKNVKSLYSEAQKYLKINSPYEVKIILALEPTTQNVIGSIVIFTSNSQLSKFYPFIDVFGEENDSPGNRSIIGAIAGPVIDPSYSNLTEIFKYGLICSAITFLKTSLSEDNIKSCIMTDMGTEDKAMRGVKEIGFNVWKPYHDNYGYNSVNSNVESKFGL

CC(=O)N[C@H]1C(O)O[C@H](CO)[C@@H](O)[C@@H]1O (stereo partly shown) [GlcNAc]
GlcNAc-agarose pull-down from protein extract, competition with free GlcNAc, ant: The binding of GlcNAc-agarose with FLAG-Ngs1 was greatly reduced when free GlcNAc was added
